Test results published in ChEMBL document CHEMBL3352746, “Synthesis and anticancer activity of quinopimaric and maleopimaric acids’ derivatives” (Bioorg Med Chem, 2014).

Tests used:
T47D = experiment: Growth inhibition of human T47D cells; type: functional
[1] = Growth inhibition of human PC3 cells; type: functional
[2] = system: Lewis lung carcinoma cell line; experiment: Antitumor activity against mouse LLC cells implanted in mouse assessed as tumor growth inhibition at 40 mg/kg, ip dosed daily for 5 days measured 12 days after treatment termination; type: functional; conditions: route intraperitoneal, read-out: TGI
[3] = Growth inhibition of human Hs 578T cells; type: functional
Mus musculus [4] = experiment: Toxicity in mouse P388 cells implanted mouse assessed as mean spleen weight at 60 mg/kg, ip dosed daily for 5 days administered 24 hrs after tumor implantation; type: organism-based; design: dose 60 mg/kg, route intraperitoneal; conditions: in vivo
[5] = Growth inhibition of human RXF393 cells; type: functional
KM12 = experiment: Growth inhibition of human KM12 cells; type: functional
Mus musculus [6] = experiment: Toxicity in mouse P388 cells implanted mouse assessed as mean spleen weight at 40 mg/kg, ip dosed daily for 5 days administered 24 hrs after tumor implantation; type: organism-based; design: dose 40 mg/kg, route intraperitoneal; conditions: in vivo
[7] = Antitumor activity against mouse AKATOL cells implanted in mouse assessed as tumor growth inhibition at 40 mg/kg, ip dosed daily for 5 days measured 5 days after treatment termination; type: functional; conditions: 120 h, route intraperitoneal, read-out: TGI
[8] = Growth inhibition of human HCT15 cells; type: functional
[9] = Antitumor activity against mouse CA-755 cells implanted in mouse assessed as tumor growth inhibition at 40 mg/kg, ip dosed daily for 5 days measured 16 days after treatment termination; type: functional; conditions: CA-755, ip, route intraperitoneal, read-out: TGI
[10] = Growth inhibition of human OVCAR5 cells; type: functional
[11] = Growth inhibition of human NCI-ADR-RES cells; type: functional
P388 [12] = experiment: Antitumor activity against mouse P388 cells implanted in mouse assessed as increase in life span at 60 mg/kg, ip dosed daily for 5 days administered 24 hrs after tumor implantation; type: functional; conditions: route intraperitoneal
[13] = Growth inhibition of human HOP92 cells; type: functional
K562 = experiment: Growth inhibition of human K562 cells; type: functional
[14] = system: Lewis lung carcinoma cell line; experiment: Antitumor activity against mouse LLC cells implanted in mouse assessed as tumor growth inhibition at 40 mg/kg, ip dosed daily for 5 days measured 8 to 9 days after treatment termination; type: functional; conditions: route intraperitoneal, read-out: TGI
[15] = Growth inhibition of human MOLT4 cells; type: functional
SK-MEL-5 = experiment: Growth inhibition of human SK-MEL-5 cells; type: functional
[16] = Antitumor activity against mouse AKATOL cells implanted in mouse assessed as tumor growth inhibition at 40 mg/kg, ip dosed daily for 5 days measured 16 days after treatment termination; type: functional; conditions: route intraperitoneal, read-out: TGI
MDA-MB-231 = experiment: Growth inhibition of human MDA-MB-231 cells; type: functional
CAKI-1 = experiment: Growth inhibition of human CAKI-1 cells; type: functional
DU-145 = experiment: Growth inhibition of human DU145 cells; type: functional
Mus musculus [17] = experiment: Toxicity in mouse CA-755 cells implanted mouse assessed as mouse mortality at 40 mg/kg, ip dosed daily for 5 days; type: organism-based; design: dose 40 mg/kg, route intraperitoneal; conditions: in vivo, 120 h
Mus musculus [18] = experiment: Toxicity in mouse P388 cells implanted mouse assessed as mean ascites volume at 40 mg/kg, ip dosed daily for 5 days administered 24 hrs after tumor implantation; type: organism-based; design: dose 40 mg/kg, route intraperitoneal; conditions: in vivo
[19] = system: Lewis lung carcinoma cell line; experiment: Antitumor activity against mouse LLC cells implanted in mouse assessed as increase in life span at 40 mg/kg, ip dosed daily for 5 days; type: functional; conditions: 120 h, route intraperitoneal
P388 [20] = experiment: Antitumor activity against mouse P388 cells implanted in mouse assessed as increase in life span at 40 mg/kg, ip dosed daily for 5 days administered 24 hrs after tumor implantation; type: functional; conditions: route intraperitoneal
[21] = Growth inhibition of human SF295 cells; type: functional
Mus musculus [22] = experiment: Toxicity in mouse P388 cells implanted mouse assessed as mouse mortality at 10 mg/kg, ip dosed daily for 5 days administered 24 hrs after tumor implantation; type: organism-based; design: dose 10 mg/kg, route intraperitoneal; conditions: in vivo
[23] = Antitumor activity against mouse CA-755 cells implanted in mouse assessed as increase in life span at 40 mg/kg, ip dosed daily for 5 days; type: functional; conditions: CA-755, ip, 120 h, route intraperitoneal
[24] = Growth inhibition of human LOXIMVI cells; type: functional; conditions: LOX IMVI
Mus musculus [25] = experiment: Toxicity in mouse P388 cells implanted mouse assessed as mouse mortality at 40 mg/kg, ip dosed daily for 5 days administered 24 hrs after tumor implantation; type: organism-based; design: dose 40 mg/kg, route intraperitoneal; conditions: in vivo
[26] = system: Lewis lung carcinoma cell line; experiment: Antitumor activity against mouse LLC cells implanted in mouse assessed as tumor growth inhibition at 40 mg/kg, ip dosed daily for 5 days measured 1 day after treatment termination; type: functional; conditions: route intraperitoneal, read-out: TGI
[27] = Growth inhibition of human UO31 cells; type: functional
Mus musculus [28] = experiment: Toxicity in mouse Ehrlich carcinoma cells implanted mouse assessed as mean ascites volume at 50 mg/kg, ip dosed daily for 5 days administered 48 hrs after tumor implantation; type: organism-based; design: dose 50 mg/kg, route intraperitoneal; conditions: in vivo
P388 [29] = experiment: Antitumor activity against mouse P388 cells implanted in mouse assessed as increase in life span at 20 mg/kg, ip dosed daily for 5 days administered 24 hrs after tumor implantation; type: functional; conditions: route intraperitoneal
[30] = Growth inhibition of human OVCAR3 cells; type: functional
Mus musculus [31] = experiment: Toxicity in mouse P388 cells implanted mouse assessed as mean ascites volume at 20 mg/kg, ip dosed daily for 5 days administered 24 hrs after tumor implantation; type: organism-based; design: dose 20 mg/kg, route intraperitoneal; conditions: in vivo
[32] = Growth inhibition of human OVCAR8 cells; type: functional, OVCAR-8
TK-10 = experiment: Growth inhibition of human TK10 cells; type: functional
Mus musculus [33] = experiment: Toxicity in mouse P388 cells implanted mouse assessed as mean spleen weight at 10 mg/kg, ip dosed daily for 5 days administered 24 hrs after tumor implantation; type: organism-based; design: dose 10 mg/kg, route intraperitoneal; conditions: in vivo
[34] = read-out: pLC50 (the source's name) (converted)

COC(=O)[C@]1(C)CCC[C@]2(C)[C@H]3C[C@H]4C(C(C)C)=C[C@]3(CC[C@H]21)[C@@H]1/C(=N/O)CC/C(=N\O)[C@@H]14
GI50 (T47D): 1.91 µM
CC50 (T47D; [34]): 24.5 µM
TGI (T47D; read-out: pTGI (converted)): 4.68 µM
GI50 ([1]; PC-3): 4.37 µM
CC50 ([1]; PC-3, read-out: pLC50 (the source's name) (converted)): 45.7 µM
TGI ([1]; PC-3, read-out: pTGI (converted)): 15.1 µM
inhibition in vivo at 40 mg/kg [2]: 30%
GI50 [3]: 0.01 µM
CC50 [3, 34]: 11.2 µM
TGI ([3]; read-out: pTGI (converted)): 2.04 µM
Activity (Mus musculus [4]): 144 mg
GI50 ([5]; RXF 393): 2.14 µM
CC50 ([5]; RXF 393, read-out: pLC50 (the source's name) (converted)): 8.91 µM
TGI ([5]; RXF 393, read-out: pTGI (converted)): 4.37 µM
GI50 (KM12): 3.39 µM
CC50 (KM12; [34]): 34.7 µM
TGI (KM12; read-out: pTGI (converted)): 10.7 µM
Activity (Mus musculus [6]): 212 mg
inhibition in vivo at 40 mg/kg [7]: 60%
GI50 ([8]; HCT-15): 3.39 µM
CC50 ([8]; HCT-15, read-out: pLC50 (the source's name) (converted)): 39.8 µM
TGI ([8]; HCT-15, read-out: pTGI (converted)): 12.9 µM
inhibition in vivo at 40 mg/kg [9]: 32%
GI50 ([10]; OVCAR-5): 5.62 µM
CC50 ([10]; OVCAR-5, read-out: pLC50 (the source's name) (converted)): 63.1 µM
TGI ([10]; OVCAR-5, read-out: pTGI (converted)): 20 µM
GI50 [11]: 3.16 µM
CC50 ([11]; read-out: pLC50 (converted)): > 100 µM
TGI ([11]; read-out: pTGI (converted)): 9.55 µM
ILS at 60 mg/kg (P388 [12]): -10%
GI50 ([13]; HOP-92): 2.09 µM
CC50 ([13]; HOP-92, read-out: pLC50 (the source's name) (converted)): 39.8 µM
TGI ([13]; HOP-92, read-out: pTGI (converted)): 5.01 µM
GI50 (K562; K562): 3.24 µM
CC50 (K562; K562, read-out: pLC50 (converted)): > 100 µM
TGI (K562; K562, read-out: pTGI (converted)): 11.7 µM
inhibition in vivo at 40 mg/kg [14]: 20%
GI50 ([15]; MOLT-4): 1.86 µM
CC50 ([15]; MOLT-4, read-out: pLC50 (the source's name) (converted)): 33.9 µM
TGI ([15]; MOLT-4, read-out: pTGI (converted)): 6.31 µM
GI50 (SK-MEL-5): 3.09 µM
CC50 (SK-MEL-5; [34]): 36.3 µM
TGI (SK-MEL-5; read-out: pTGI (converted)): 11.5 µM
inhibition in vivo at 40 mg/kg [16]: 47%
GI50 (MDA-MB-231): 7.24 µM
CC50 (MDA-MB-231; [34]): 56.2 µM
TGI (MDA-MB-231; read-out: pTGI (converted)): 22.4 µM
GI50 (CAKI-1; CAKI-1): 7.08 µM
CC50 (CAKI-1; CAKI-1, read-out: pLC50 (converted)): > 100 µM
TGI (CAKI-1; CAKI-1, read-out: pTGI (converted)): 32.4 µM
GI50 (DU-145; DU-145): 3.02 µM
CC50 (DU-145; DU-145, read-out: pLC50 (converted)): > 100 µM
TGI (DU-145; DU-145, read-out: pTGI (converted)): 15.8 µM
Activity (Mus musculus [17]): Non-toxic
Activity (Mus musculus [18]): 1.2 mL
ILS at 40 mg/kg [19]: 18%
ILS at 40 mg/kg (P388 [20]): -7%
GI50 ([21]; SF-295): 5.89 µM
CC50 ([21]; SF-295, read-out: pLC50 (the source's name) (converted)): 64.6 µM
TGI ([21]; SF-295, read-out: pTGI (converted)): 21.4 µM
Activity (Mus musculus [22]): Non-toxic
ILS at 40 mg/kg [23]: 11%
GI50 [24]: 2 µM
CC50 [24, 34]: 7.76 µM
TGI ([24]; read-out: pTGI (converted)): 3.98 µM
Activity (Mus musculus [25]): Non-toxic
inhibition in vivo at 40 mg/kg [26]: 47%
GI50 ([27]; UO-31): 4.9 µM
CC50 ([27]; UO-31, read-out: pLC50 (the source's name) (converted)): 75.9 µM
TGI ([27]; UO-31, read-out: pTGI (converted)): 20.9 µM
Activity (Mus musculus [28]): 0.63 mL
ILS at 20 mg/kg (P388 [29]): -4%
GI50 ([30]; OVCAR-3): 2.4 µM
CC50 ([30]; OVCAR-3, read-out: pLC50 (the source's name) (converted)): 15.8 µM
TGI ([30]; OVCAR-3, read-out: pTGI (converted)): 5.37 µM
Activity (Mus musculus [31]): 0.57 mL
GI50 ([32]; OVCAR-8): 3.24 µM
CC50 ([32]; OVCAR-8, read-out: pLC50 (converted)): > 100 µM
TGI ([32]; OVCAR-8, read-out: pTGI (converted)): 12.6 µM
GI50 (TK-10): 9.12 µM
CC50 (TK-10; [34]): 56.2 µM
TGI (TK-10; read-out: pTGI (converted)): 22.9 µM
Activity (Mus musculus [33]): 95 mg
